# According to US12291529B2, “Heterocyclic GLP-1 agonists” (Gasherbrum Bio, Inc., priority 2023, dated 2025):
# Molecular target: GLP-1 Receptor (Homo sapiens, UniProt P43220)
# Assay: GLP-1R agonist cAMP stimulation assay (HEK293/GLP1R/CRE-LUC cells, Cisbio cAMP dynamic 2 kit)
# Format: cell-based
# Conditions: Table 3, HEK293/GLP1R/CRE-LUC cells, 30 min
# Procedure: Activation of GLP-1 receptor is known to stimulate cyclic AMP (cAMP) production in cells which indicates primary coupling to the G as subunit of the G protein heterotrimeric complex.
# To optimize functional activity directed toward G as coupling, a HEK293/CRE-Luc cell line developed by HDB stably expressing the GLP-1 Receptor was used. 200× concentration of compound working solutions were prepared (Agilent Technologies Bravo) with ½ log serial dilution in 384-well Echo LDV plate (Labcyte, CatOLP-0200). 50 nL/well 200× concentration of compound working solutions were moved to 384-well white low volume plate (Greiner, Cat4784075) using Labcyte ECH0550.1×10^5 cells/mL HEK293/GLP1R/CRE-LUC (HD Biosciences) cell suspensions prepared with assay buffer (DPBS containing 0.5 mM IBMX (Sigma, Cat15879) and 0.10 BSA (GENVIEW, Cat4FA016-100g)), 10 uL cell suspensions were added to each well of previous generated assay plate which already contains 50 n^1 compound at 200 xconcentration using ThermioFisher Multidrop Combi (1000 cells/well). Seal the plate and incubate at 37 with […] for 30 m.
# After incubation the cAMP assay signal was generated using cAMP dynamic 2 Kit (Cisbio). 5 μL cAMP-d2 working solution was added to each well, followed with 5 L Anti-cAMP antibody-cryptate working solution added to each well using ThermoFisher Multidrop Combi. Incubate at room temperature for 1 hour protected from light. Read the fluorescence at 665 and 615 nm with Reader PerkinElmer EnVision. % oActivity=100%×(mean RLU of test sample−mean RLU of vehicle control)/(mean RLU of MAX control−mean RLU of vehicle control)
# GLP-1 Receptor, sequence (P43220 24-463, species assumed): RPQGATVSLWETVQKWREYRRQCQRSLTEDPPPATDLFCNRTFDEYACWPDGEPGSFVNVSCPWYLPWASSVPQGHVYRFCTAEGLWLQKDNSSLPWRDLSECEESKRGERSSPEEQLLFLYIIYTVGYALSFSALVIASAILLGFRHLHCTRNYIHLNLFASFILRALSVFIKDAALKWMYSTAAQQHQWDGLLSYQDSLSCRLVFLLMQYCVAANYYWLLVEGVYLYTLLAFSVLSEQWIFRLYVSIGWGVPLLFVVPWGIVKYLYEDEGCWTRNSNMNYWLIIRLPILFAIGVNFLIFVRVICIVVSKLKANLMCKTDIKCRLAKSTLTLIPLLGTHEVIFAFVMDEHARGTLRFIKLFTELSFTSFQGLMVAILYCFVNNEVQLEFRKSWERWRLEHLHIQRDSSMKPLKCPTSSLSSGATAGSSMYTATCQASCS
row,EC50,Compound
1,0.058 nM,"CN=S1(=O)CCC(Oc2ccc(-n3ccn(-c4c5c(nn4-c4cc(C)c(F)c(C)c4)CCN(C(=O)c4cc6cc(C7CCOCC7)ccc6n4[C@@]4(c6noc(=O)[nH]6)C[C@@H]4C)[C@H]5C)c3=O)cc2C(F)F)CC1 (single isomer, unassigned) [Compound 234]"
2,0.2 nM,"CN=S(=O)(c1ccc(-n2ccn(-c3c4c(nn3-c3ccc(F)c(C5CC5)c3)CCN(C(=O)c3cc5cc([C@H]6CCOC(C)(C)C6)ccc5n3[C@@]3(c5noc(=O)[nH]5)C[C@@H]3C)[C@H]4C)c2=O)c(F)c1C)C1CC1 (single isomer, unassigned) [Compound 217]"
3,0.27 nM,Cc1cc(-n2nc3c(c2-n2ccn(-c4ccc(S(C)(=N)=O)cc4)c2=O)[C@H](C)N(C(=O)c2cn4cc(C5CCOCC5)ccc4c2C2(c4noc(=O)[nH]4)CC2)CC3)cc(C)c1F (stereo partly drawn) [Compound 109]
4,0.04 nM,C[C@H]1c2c(nn(-c3ccc(F)c(C4CC4)c3)c2-n2ccn(-c3ccc(S(C)(=N)=O)cc3)c2=O)CCN1C(=O)c1cc2cc(C3CCOCC3)ccc2n1[C@@]1(c2noc(=O)[nH]2)C[C@@H]1C (stereo partly drawn) [Compound 118]
5,0.046 nM,"Cc1cc(-n2nc3c(c2-n2ccn(-c4ccc(S(C)(=O)=NC#N)cc4)c2=O)[C@H](C)N(C(=O)c2cc4cc(C5CCOCC5)ccc4n2[C@@]2(c4noc(=O)[nH]4)C[C@@H]2C)CC3)cc(C)c1F (single isomer, unassigned) [Compound 122]"
6,0.022 nM,"CCS(=N)(=O)c1ccc(-n2ccn(-c3c4c(nn3-c3cc(C)c(F)c(C)c3)CCN(C(=O)c3cc5cc(C6CCOCC6)ccc5n3[C@@]3(c5noc(=O)[nH]5)C[C@@H]3C)[C@H]4C)c2=O)cn1 (single isomer, unassigned) [Compound 141]"
7,0.22 nM,"Cc1cc(-n2nc3c(c2-n2ccn(-c4ccc(S(=O)(=NC5CC5)C5CC5)cc4F)c2=O)[C@H](C)N(C(=O)c2cc4cc([C@H]5CCOC(C)(C)C5)ccc4n2[C@@]2(c4noc(=O)[nH]4)C[C@@H]2C)CC3)cc(C)c1F (single isomer, unassigned) [Compound 209]"
8,0.0051 nM,"Cc1cc(-n2nc3c(c2-n2ccn(-c4ccc(S(=N)(=O)C5CC5)cc4)c2=O)[C@H](C)N(C(=O)c2cc4cc(C5CCOCC5)ccc4n2[C@@]2(c4noc(=O)[nH]4)C[C@@H]2C)CC3)cc(C)c1F (single isomer, unassigned) [Compound 134]"
9,0.053 nM,"CN=S1(=O)CCC(Oc2ccc(-n3ccn(-c4c5c(nn4-c4cc(C)c(F)c(C)c4)CCN(C(=O)c4cc6cc([C@H]7CCOC(C)(C)C7)ccc6n4[C@@]4(c6noc(=O)[nH]6)C[C@@H]4C)[C@H]5C)c3=O)cc2C2CC2)CC1 (single isomer, unassigned) [Compound 236]"
10,0.099 nM,"CCS(=N)(=O)c1ccc(-n2ccn(-c3c4c(nn3-c3cc(C)c(F)c(C)c3)CCN(C(=O)c3cc5cc(C6CCOCC6)ccc5n3[C@@]3(c5noc(=O)[nH]5)C[C@@H]3C)[C@H]4C)c2=O)cn1 (single isomer, unassigned) [Compound 140]"
11,0.01 nM,Cc1cc(-n2ccn(-c3c4c(nn3-c3cc(C)c(F)c(C)c3)CCN(C(=O)c3cc5cc(C6CCOCC6)ccc5n3[C@@]3(c5noc(=O)[nH]5)C[C@@H]3C)[C@H]4C)c2=O)ccc1S(C)(=N)=O (stereo partly drawn) [Compound 124]

# Second part, the compound before the results:
row,Compound,EC50
1,"CC1=Cc2cc(-n3ccn(-c4c5c(nn4-c4cc(C)c(F)c(C)c4)CCN(C(=O)c4cc6cc([C@H]7CCOC(C)(C)C7)ccc6n4[C@@]4(c6noc(=O)[nH]6)C[C@@H]4C)[C@H]5C)c3=O)ccc2S(C)(=O)=N1 (single isomer, unassigned) [Compound 207]",0.02 nM
2,"Cc1cc(-n2nc3c(c2-n2ccn(-c4ccc5c(c4F)CCN=S5(=O)C4CC4)c2=O)[C@H](C)N(C(=O)c2cc4cc([C@H]5CCOC(C)(C)C5)ccc4n2[C@@]2(c4noc(=O)[nH]4)C[C@@H]2C)CC3)cc(C)c1F (single isomer, unassigned) [Compound 197]",0.018 nM
3,"CC1=Cc2cc(-n3ccn(-c4c5c(nn4-c4cc(C)c(F)c(C)c4)CCN(C(=O)c4cc6cc([C@H]7CCOC(C)(C)C7)ccc6n4[C@@]4(c6noc(=O)[nH]6)C[C@@H]4C)[C@H]5C)c3=O)ccc2S(C)(=O)=N1 (single isomer, unassigned) [Compound 206]",0.02 nM
4,"Cc1cc(-n2nc3c(c2-n2ccn(-c4ccc5c(c4F)CN=S5(=O)C4CC4)c2=O)[C@H](C)N(C(=O)c2cc4cc([C@H]5CCOC(C)(C)C5)ccc4n2[C@@]2(c4noc(=O)[nH]4)C[C@@H]2C)CC3)cc(C)c1F (single isomer, unassigned) [Compound 191]",0.0096 nM
5,"CCS(=O)(=NC)c1ccc(-n2ccn(-c3c4c(nn3-c3cc(C)c(F)c(C)c3)CCN(C(=O)c3cc5cc(C6CCOCC6)ccc5n3Cc3ccc(C)nc3)[C@H]4C)c2=O)c(F)c1 (single isomer, unassigned) [Compound 171]",8.8 nM
6,"Cc1cc(-n2nc3c(c2-n2ccn(-c4cc5c(cc4F)S(C)(=O)=NC5)c2=O)[C@H](C)N(C(=O)c2cc4cc([C@H]5CCOC(C)(C)C5)ccc4n2[C@@]2(c4noc(=O)[nH]4)C[C@@H]2C)CC3)cc(C)c1F (single isomer, unassigned) [Compound 199]",0.01 nM
7,"Cc1cc(-n2nc3c(c2-n2ccn(-c4ccc5c(c4Cl)CN=S5(C)=O)c2=O)[C@H](C)N(C(=O)c2cc4cc([C@H]5CCOC(C)(C)C5)ccc4n2[C@@]2(c4noc(=O)[nH]4)C[C@@H]2C)CC3)cc(C)c1F (single isomer, unassigned) [Compound 202]",0.018 nM
8,Cc1cc(-n2nc3c(c2-n2ccn(-c4ccc(S(C)(=N)=O)cc4)c2=O)[C@H](C)N(C(=O)c2cc4cc(C5CCOCC5)ccc4n2-c2cccc(S(=O)(=O)Nc4ncccn4)c2)CC3)cc(C)c1F (stereo partly drawn) [Compound 119],1 nM
9,"Cc1nnc(C2(n3c(C(=O)N4CCc5nn(-c6cc(C)c(F)c(C)c6)c(-n6ccn(-c7ccc(S8(=O)=NCCC8)cc7)c6=O)c5[C@@H]4C)cc4cc(C5CCOCC5)ccc43)CC2)o1 (single isomer, unassigned) [Compound 155]",0.99 nM
10,"CCS(=O)(=NC)c1ccc(-n2ccn(-c3c4c(nn3-c3cc(C)c(F)c(C)c3)CCN(C(=O)c3cc5cc(C6CCOCC6)ccc5n3Cc3cnc(C)cn3)[C@H]4C)c2=O)c(F)c1 (single isomer, unassigned) [Compound 170]",1.8 nM
11,"Cc1cc(-n2nc3c(c2-n2ccn(-c4ccc5c(c4F)CN=S5(C)=O)c2=O)[C@H](C)N(C(=O)c2cc4cc([C@H]5CCOC(C)(C)C5)ccc4n2[C@@]2(c4noc(=O)[nH]4)C[C@@H]2C)CC3)cc(C)c1F (single isomer, unassigned) [Compound 187]",0.01 nM
12,"Cc1cc(-n2nc3c(c2-n2ccn(-c4ccc5c(c4)CS(C)(=O)=N5)c2=O)[C@H](C)N(C(=O)c2cc4cc([C@H]5CCOC(C)(C)C5)ccc4n2[C@@]2(c4noc(=O)[nH]4)C[C@@H]2C)CC3)cc(C)c1F (stereo partly drawn) [Compound 227, 5-{3-[(4S)-2-(4-fluoro-3,5-dimethylphenyl)-5-({5-[(4S)-2,2-dimethyl-3,4,5,6-tetrahydro-2H-pyran-4-yl]-1-[(1S,2S)-2-methyl-1-(5-oxo-4H-1,2,4-oxadiazol-3-yl)cyclopropyl]indol-2-yl}carbonyl)-4-methyl-4,5,6,7-tetrahydropyrazolo[4,3-c]pyridin-3-yl]-2-oxoimidazol-1-yl}-2-methyl-3H-2λ^6-benzo[c][1,2]thiazol-2-one]",0.015 nM
13,"Cc1cc(-n2nc3c(c2-n2ccn(-c4ccc5c(c4)CCS(C)(=O)=N5)c2=O)[C@H](C)N(C(=O)c2cc4cc([C@H]5CCOC(C)(C)C5)ccc4n2[C@@]2(c4noc(=O)[nH]4)C[C@@H]2C)CC3)cc(C)c1F (single isomer, unassigned) [Compound 229]",0.042 nM
